Molecular target: CDK2/CyclinE1 (Homo sapiens (Human), UniProt P24941)
Assay: CDK2 kinase assay (TR-FRET)
Assay type: biochemical
Conditions: CDK2/CyclinE1 0.5 nM, ATP 50 μM
Procedure: The purpose of these assays is to evaluate the inhibition of small molecule inhibitors by using TR-FRET assay.
Compound Preparation. Dissslove the compounds into DMSO solution to make 10 mM DMSO stock. Serially dilute the stock solution from highest concentration down to lowest in DMSO to make the compound stock plate (100× stock plates). To make 5× compound intermediate plate, add 38 μL of assay buffer (50 mM HEPES, pH 7.5, 0.05 mg/mL BSA, 10 mM MgCl2, 1 mM EGTA, 0.01% Tween-20, 2 mM DTT) into each well of the V-bottom plate; then transfer 2 μL of the stock compound solution of each concentration from the compound stock plate (100× stock), and mix well.
Enzyme reaction. Transfer 2 μL compound from 5× intermediate plate into assay plate, then add 4 μL/well 2.5× Enzyme mix to assay plate, incubation for 10 min at room temperature. For positive control wells, add 4 μL/well assay buffer instead of Enzyme mix. Then add 4 μL/well 2.5× Substrate mix to assay plate, and incubation at 25° C. for 30 min at room temperature. After reaction, 10 μL 2× Detection mix (final 15 mM EDTA, 1× LANCE Detection Buffer, 0.5 nM Detection antibody) was added and incubated for 1 h prior to detection with excitation and emission at 320 and 665 nm (Tecan Spark® TR-FRET mode Tecan).
Inhibition rate (IR) of the tested compounds was determined by the following formula: IR (%)=(average High control−compound well)/(average High control−average Low control)*100%. Fit the compound IC50 from non-linear regression equation: Y=Bottom+(Top−Bottom)/(1+10^((Log IC50−X)*HillSlope)). X: Log of cpd concentration; Y: Inhibition rate (TR); Top and Bottom: Plateaus in same units as Y, log IC50: same log units as X; HillSlope: Slope factor or Hill slope.

Structure (SMILES)	IC50 [nM]
CC(C)NC(=O)O[C@@H]1CC[C@H](c2cc(NC(=O)[C@H]3CCN(C(=O)C(C)C)C3)n[nH]2)C1 [Compound 31]	8.1
CC(C)NC(=O)O[C@@H]1CC[C@H](c2cc(NC(=O)[C@H]3CCN(C(=O)c4cnn(C)c4)C3)n[nH]2)C1 [Compound 32]	2.9
COC[C@H]1C[C@@H]1C(=O)Nc1cc([C@H]2CC[C@@H](OC(=O)NC34CC(C3)C4)C2)[nH]n1 [Compound 34]	0.7
COC[C@H]1C[C@@H]1C(=O)Nc1cc([C@H]2CC[C@@H](OC(=O)NC3(C)CC3)C2)[nH]n1 [Compound 35]	0.8
CC(C)NC(=O)O[C@@H]1CC[C@H](c2cc(NC(=O)C3CCCC3)n[nH]2)C1 [Compound 37]	2.9
COC[C@H]1C[C@@H]1C(=O)Nc1cc([C@H]2CC[C@@H](OC(N)=O)C2)[nH]n1 [Compound 40]	47.7
Cn1nccc1C(=O)Nc1cc([C@H]2CC[C@@H](OC(=O)NC34CCC(CC3)OC4)C2)[nH]n1 [Compound 42]	4.4
CC(C)NC(=O)O[C@@H]1CC[C@H](c2cc(NC(=O)[C@H]3C[C@@H]3COC(C)C)n[nH]2)C1 [Compound 45]	2.7
CC(C)NC(=O)O[C@@H]1CC[C@H](c2cc(NC(=O)C34CC(C3)C4)n[nH]2)C1 [Compound 46]	1.5
CC1(NC(=O)OC2COC(c3cc(NC(=O)Cc4cc(F)cc(F)c4)n[nH]3)C2)CCOC1 (centres unmarked) [Compound 50]	0.9
CC1(NC(=O)OC2COC(c3cc(NC(=O)Cc4cc(F)cc(F)c4)n[nH]3)C2)CCOC1 (centres unmarked) [Compound 51]	1.7
CC(C)NC(=O)O[C@@H]1CC[C@H](c2cc(NC(=O)[C@H]3C[C@@H]3CC#N)n[nH]2)C1 [Compound 56]	4
COC[C@H]1C[C@@H]1C(=O)Nc1cc([C@H]2CC[C@@H](OC(=O)N[C@@H](C)C3CC3)C2)[nH]n1 [Compound 57]	5.8
CC(C)NC(=O)O[C@@H]1CC[C@H](c2cc(NC(=O)[C@@H]3CCN(S(=O)(=O)C(C)C)C3)n[nH]2)C1 [Compound 58]	4.1
CC[C@H](C)NC(=O)O[C@@H]1CC[C@H](c2cc(NC(=O)[C@@H]3CCN(S(C)(=O)=O)C3)n[nH]2)C1 [Compound 59]	4.9
CC(C)NC(=O)OC1COC(c2cc(NC(=O)Cc3ccc(C(F)(F)F)cc3)n[nH]2)C1 (centres unmarked) [Compound 62]	2.3
CC(C)NC(=O)OC1COC(c2cc(NC(=O)Cc3ccc(C(F)(F)F)cc3)n[nH]2)C1 (centres unmarked) [Compound 63]	9.7
CC(C)NC(=O)OC1COC(c2cc(NC(=O)Cc3ccccc3C(F)(F)F)n[nH]2)C1 (centres unmarked) [Compound 64]	16.6
CC(C)NC(=O)OC1COC(c2cc(NC(=O)Cc3ccccc3C(F)(F)F)n[nH]2)C1 (centres unmarked) [Compound 65]	97.3
CC(C)NC(=O)OC1COC(c2cc(NC(=O)c3ccccc3)n[nH]2)C1 (centres unmarked) [Compound 66]	14.4
CC(C)NC(=O)OC1COC(c2cc(NC(=O)c3ccccc3)n[nH]2)C1 (centres unmarked) [Compound 67]	61.2

Structure (SMILES)	IC50 [nM]
CO[C@H]1C[C@H](C(=O)Nc2cc([C@H]3CC[C@@H](OC(=O)NC(C)C)C3)[nH]n2)C1 [Compound 68]	8
COCc1cc(C(=O)Nc2cc([C@H]3C[C@@H]4[C@H](C3)[C@H]4C(=O)NC(C)C)[nH]n2)n(C)n1 [Compound 69]	18.8
CC(C)NC(=O)O[C@@H]1CC[C@H](c2cc(NC(=O)[C@@H]3CCN(S(=O)(=O)C4CC4)C3)n[nH]2)C1 [Compound 70]	1.2
CC(C)NC(=O)O[C@@H]1CC[C@H](c2cc(NC(=O)[C@@H]3CCCN(S(C)(=O)=O)C3)n[nH]2)C1 [Compound 71]	8.7
COC1CN(CC(=O)Nc2cc([C@H]3CC[C@@H](OC(=O)NC(C)C)C3)[nH]n2)C1 [Compound 72]	210
COC[C@H]1C[C@@H]1C(=O)Nc1cc([C@H]2CC[C@@H](OC(=O)N[C@H](C)C3CC3)C2)[nH]n1 [Compound 73]	4.1
CC(C)NC(=O)O[C@@H]1CC[C@H](c2cc(NC(=O)C3CN(S(C)(=O)=O)CC3C)n[nH]2)C1 (some centres unmarked) [Compound 74]	2.2
CC(C)NC(=O)O[C@@H]1CC[C@H](c2cc(NC(=O)C3CN(S(C)(=O)=O)CC3C)n[nH]2)C1 (some centres unmarked) [Compound 75]	11.5
CC(C)NC(=O)O[C@@H]1CC[C@H](c2cc(NC(=O)[C@H]3CCCN(S(C)(=O)=O)C3)n[nH]2)C1 [Compound 76]	22.7
CC(C)NC(=O)O[C@@H]1CO[C@H](c2cc(NC(=O)c3cc(C4CC4)nn3C)n[nH]2)C1 [Compound 77]	56
CCc1cc(C(=O)Nc2cc([C@@H]3C[C@H](OC(=O)NC(C)C)CO3)[nH]n2)n(C)n1 [Compound 78]	18.7
CCc1cc(C(=O)Nc2cc([C@H]3C[C@@H](OC(=O)NC(C)C)CO3)[nH]n2)n(C)n1 [Compound 79]	7.6
CC(C)NC(=O)O[C@H]1CO[C@@H](c2cc(NC(=O)c3cc(C4CC4)nn3C)n[nH]2)C1 [Compound 80]	15.4
CS(=O)(=O)N1CC[C@@H](C(=O)Nc2cc([C@H]3CC[C@@H](OC(=O)NC45CC(C4)C5)C3)[nH]n2)C1 [Compound 81]	0.9
CC(C)NC(=O)O[C@@H]1CC[C@H](c2cc(NC(=O)CN3CC(F)C3)n[nH]2)C1 [Compound 82]	114
CC1(NC(=O)O[C@@H]2CC[C@H](c3cc(NC(=O)[C@@H]4CCN(S(C)(=O)=O)C4)n[nH]3)C2)CC1 [Compound 83]	1.1
COCC1C[C@@H]1C(=O)Nc1cc([C@H]2CC[C@@H](OC(=O)NC(C)(C)C)C2)[nH]n1 (some centres unmarked) [Compound 85]	2
CC(C)NC(=O)O[C@@H]1CC[C@H](c2cc(NC(=O)C3CC3C#N)n[nH]2)C1 (some centres unmarked) [Compound 87]	3.6
Cc1cc(C(=O)Nc2cc([C@H]3C[C@@H](OC(=O)NC(C)C)CO3)[nH]n2)n(C)n1 [Compound 90]	5.7
Cc1cc(C(=O)Nc2cc([C@@H]3C[C@H](OC(=O)NC(C)C)CO3)[nH]n2)n(C)n1 [Compound 91]	19.1
CC(C)NC(=O)O[C@H]1CO[C@@H](c2cc(NC(=O)c3ccnn3CC(F)F)n[nH]2)C1 [Compound 92]	2

Structure (SMILES)	IC50 [nM]
CC(C)NC(=O)O[C@@H]1CO[C@H](c2cc(NC(=O)c3ccnn3CC(F)F)n[nH]2)C1 [Compound 93]	5.2
Cn1nccc1C(=O)Nc1cc([C@H]2C[C@@H](OC(=O)NC3(C)CC3)CO2)[nH]n1 [Compound 94]	1.3
Cn1nccc1C(=O)Nc1cc([C@@H]2C[C@H](OC(=O)NC3(C)CC3)CO2)[nH]n1 [Compound 95]	3.7
Cn1nccc1C(=O)Nc1cc([C@H]2C[C@@H](OC(=O)NC34CC(C3)C4)CO2)[nH]n1 [Compound 96]	0.8
COCc1cc(C(=O)Nc2cc([C@H]3C[C@@H]4[C@H](C3)[C@H]4C(=O)NC(C)(C)C)[nH]n2)n(C)n1 [Compound 98]	18.8
CC[C@H](C)NC(=O)O[C@H]1CO[C@@H](c2cc(NC(=O)c3ccnn3C)n[nH]2)C1 [Compound 99]	0.8
Cn1nccc1C(=O)Nc1cc([C@H]2C[C@@H](OC(=O)NC(C)(C)C)CO2)[nH]n1 [Compound 101]	1.5
CC(C)NC(=O)O[C@@H]1CO[C@H](c2cc(NC(=O)Cc3ccc4ncn(C)c4c3)n[nH]2)C1 [Compound 103]	10.8
COCc1cc(F)cc(CC(=O)Nc2cc([C@@H]3C[C@H](OC(=O)NC(C)C)CO3)[nH]n2)c1 [Compound 104]	17.5
CC(C)NC(=O)O[C@@H]1CC[C@H](c2cc(NC(=O)[C@H]3C[C@@H]3COC(F)F)n[nH]2)C1 [Compound 105]	1.1
CC(C)NC(=O)O[C@@H]1CC[C@H](c2cc(NC(=O)C34CC(C(F)F)(C3)C4)n[nH]2)C1 [Compound 106]	1.8
CC(C)NC(=O)O[C@H]1CO[C@@H](c2cc(NC(=O)c3cc(C(F)F)nn3C)n[nH]2)C1 [Compound 111]	4.1
CC(C)NC(=O)O[C@@H]1CO[C@H](c2cc(NC(=O)c3cc(C(F)F)nn3C)n[nH]2)C1 [Compound 112]	13.4
CC(C)NC(=O)O[C@@H]1CC[C@H](c2cc(NC(=O)C3[C@H]4COC[C@@H]34)n[nH]2)C1 (some centres unmarked) [Compound 115]	54.5
CC(C)NC(=O)O[C@@H]1CO[C@H](c2cc(NC(=O)Cc3cc(F)cc(C#N)c3)n[nH]2)C1 [Compound 116]	4.5
CC1(NC(=O)O[C@@H]2CC[C@H](c3cc(NC(=O)[C@@H]4CCN(S(C)(=O)=O)C4)n[nH]3)C2)CCC1 [Compound 119]	0.4
COC[C@@H]1CCN(C(=O)Nc2cc([C@H]3CC[C@@H](OC(=O)NC(C)C)C3)[nH]n2)C1 [Compound 120]	116
CC(C)NC(=O)O[C@H]1CO[C@@H](c2cc(NC(=O)Cc3ccc(OCCN4CCCC4)cc3)n[nH]2)C1 [Compound 121]	3.2
COC[C@H]1CCN(C(=O)Nc2cc([C@H]3CC[C@@H](OC(=O)NC(C)C)C3)[nH]n2)C1 [Compound 123]	265
CS(=O)(=O)N1CC[C@@H](C(=O)Nc2cc([C@H]3CC[C@@H](OC(=O)NC4(C(F)F)CC4)C3)[nH]n2)C1 [Compound 124]	1.2

— US20250195475A1, “CDK2 INHIBITOR AND PREPARATION METHOD AND USE THEREOF” (INVENTISBIO CO., LTD., priority 2022, published 2025)
